pEC50: −log10 of the molar value. Where two headings read alike, the source gives them in different places. Starred links: 1 amine or outer side, 2 acyl side, 3 side chain; linkers in the order of their positions; H or OH if unused. Non-standard residues stand in square brackets, D forms with d. Groups on a side chain read outwards from the residue. *: point of attachment. C20 diacid = O=C(O)CCCCCCCCCCCCCCCCCCC(=O)*; C18 diacid = O=C(O)CCCCCCCCCCCCCCCCC(=O)*; γGlu = O=C(O)[C@H](CCC(=O)[*:2])N[*:1]; εLys = N[C@@H](CCCCN[*:1])C(=O)[*:2]; Tle = CC(C)(C)[C@H](N)C(=O)O; AEEA = NCCOCCOCC(=O)O; Aib = CC(C)(N)C(=O)O; Ahx = NCCCCCC(=O)O
Key:
Type in all cases: cell-based
Settings in all cases: CreLuc reporter gene assay
[1] = target: T1, hGLP1R (Homo sapiens, UniProt P43220); assay: hGLP1R CreLuc reporter gene assay in 0.5% and 100% plasma
T1 construct: expressed in transfected cells; host or cells: HEK-293 cells carrying a CRE-luciferase reporter gene
How it was run: (§1)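 HEK cells (GLP-1R, NPY2R) or CHO cells (GIPR) carrying a CRE-luciferase reporter, incubated 4 h at 37 °C with peptides in HBSS/20 mM HEPES pH 7.4 plus 0.5% human plasma, or in 100% plasma. Luminescence read; EC50 from 8-point variable-slope sigmoid fits.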

[2] = target: T2, hGIPR (Homo sapiens, UniProt P48546); assay: hGIPR CreLuc reporter gene assay in 0.5% and 100% plasma
T2 construct: expressed in transfected cells; host or cells: CHO cells carrying a CRE-luciferase reporter gene
T2 sequence (P48546 22-466): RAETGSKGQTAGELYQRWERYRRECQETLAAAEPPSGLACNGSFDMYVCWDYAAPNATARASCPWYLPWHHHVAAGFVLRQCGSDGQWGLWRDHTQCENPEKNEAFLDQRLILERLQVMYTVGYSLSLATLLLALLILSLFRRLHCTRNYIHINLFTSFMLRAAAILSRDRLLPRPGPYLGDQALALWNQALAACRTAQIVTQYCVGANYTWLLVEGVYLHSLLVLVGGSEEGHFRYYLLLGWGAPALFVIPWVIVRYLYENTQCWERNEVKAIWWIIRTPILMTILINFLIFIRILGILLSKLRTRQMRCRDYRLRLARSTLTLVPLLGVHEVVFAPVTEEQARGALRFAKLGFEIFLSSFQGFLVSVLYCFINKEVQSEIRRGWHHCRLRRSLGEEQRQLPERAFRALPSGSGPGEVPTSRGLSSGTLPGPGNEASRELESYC
How it was run: as §1

[3] = target: T3, hNPY2R (Homo sapiens, UniProt P49146); assay: hNPY2R CreLuc reporter gene assay in 0.5% and 100% plasma
T3 construct: expressed in transfected cells; host or cells: HEK-293 cells carrying a CRE-luciferase reporter gene
T3 sequence (P49146 1-381): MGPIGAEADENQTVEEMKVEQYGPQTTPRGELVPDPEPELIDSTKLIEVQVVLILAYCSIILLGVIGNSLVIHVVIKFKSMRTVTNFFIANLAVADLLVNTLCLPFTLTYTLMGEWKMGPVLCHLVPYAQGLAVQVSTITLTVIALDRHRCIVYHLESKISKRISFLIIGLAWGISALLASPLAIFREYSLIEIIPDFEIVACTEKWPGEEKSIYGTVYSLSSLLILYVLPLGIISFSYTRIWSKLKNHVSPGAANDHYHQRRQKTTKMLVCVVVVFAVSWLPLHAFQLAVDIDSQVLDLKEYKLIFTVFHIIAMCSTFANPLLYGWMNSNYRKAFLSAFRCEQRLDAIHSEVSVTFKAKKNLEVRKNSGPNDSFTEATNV
How it was run: as §1

[4] = 0.5% human plasma, read-out: hGLP1R 0.5% hP
[5] = 0.5% human plasma, read-out: hGIPR 0.5% hP
[6] = 0.5% human plasma, read-out: hNPY2R 0.5% hP
[7] = 100% human plasma, read-out: hNPY2R 100% hP
[8] = 100% human plasma, read-out: hGLP1R 100% hP
[9] = 100% human plasma, read-out: hGIPR 100% hP

T1 sequence (P43220 24-463): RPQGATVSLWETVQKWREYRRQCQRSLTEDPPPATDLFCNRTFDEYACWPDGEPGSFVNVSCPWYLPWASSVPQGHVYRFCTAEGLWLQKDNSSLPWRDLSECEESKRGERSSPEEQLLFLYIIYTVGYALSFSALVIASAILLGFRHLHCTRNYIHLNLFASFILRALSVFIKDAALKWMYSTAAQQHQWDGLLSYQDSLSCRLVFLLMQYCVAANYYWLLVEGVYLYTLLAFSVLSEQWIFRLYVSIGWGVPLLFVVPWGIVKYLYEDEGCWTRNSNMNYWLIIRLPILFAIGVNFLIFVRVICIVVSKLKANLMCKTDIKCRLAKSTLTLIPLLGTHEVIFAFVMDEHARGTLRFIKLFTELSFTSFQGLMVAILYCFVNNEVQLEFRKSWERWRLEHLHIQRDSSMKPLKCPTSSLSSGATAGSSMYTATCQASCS

| Molecule | pEC50 [1, 4] | pEC50 [2, 5] | pEC50 [3, 6] | pEC50 [3, 7] | pEC50 [1, 8] | pEC50 [2, 9] |
| --- | --- | --- | --- | --- | --- | --- |
| CC[C@H](C)[C@H](NC(=O)[C@H](CC(C)C)NC(=O)[C@H](Cc1c[nH]c2ccccc12)NC(=O)[C@H](CCC(N)=O)NC(=O)[C@@H](NC(=O)[C@H](Cc1ccccc1)NC(=O)[C@H](CCC(=O)O)NC(=O)C(C)(C)NC(=O)[C@H](CCC(N)=O)NC(=O)[C@H](C)NC(=O)[C@H](CCC(N)=O)NC(=O)[C@H](CCCCN)NC(=O)[C@H](CCC(=O)O)NC(=O)[C@H](CC(C)C)NC(=O)C(C)(C)NC(=O)[C@@H](NC(=O)[C@H](CO)NC(=O)[C@H](Cc1ccc(O)cc1)NC(=O)[C@H](CC(=O)O)NC(=O)[C@H](CO)NC(=O)[C@@H](NC(=O)[C@H](Cc1ccccc1)NC(=O)[C@@H](NC(=O)CNC(=O)[C@H](CCC(=O)O)NC(=O)C(C)(C)NC(=O)[C@@H](N)Cc1ccc(O)cc1)[C@@H](C)O)[C@@H](C)O)[C@@H](C)CC)C(C)C)C(=O)N[C@@H](CCCCNC(=O)[C@H](CCC(=O)O)NC(=O)[C@H](CCC(=O)O)NC(=O)[C@H](CCC(=O)O)NC(=O)[C@H](CCC(=O)O)NC(=O)[C@H](CCC(=O)O)NC(=O)CCCCCCCCCCCCCCCCC(=O)O)C(=O)NCC(=O)NCC(=O)N1CCC[C@H]1C(=O)N[C@@H](CO)C(=O)N[C@@H](CCC(=O)O)C(=O)NCC(=O)N[C@@H](C)C(=O)N[C@@H](CO)C(=O)N[C@@H](CC(C)C)C(=O)N[C@@H](CCCNC(=N)N)C(=O)N[C@@H](Cc1c[nH]cn1)C(=O)N[C@@H](Cc1ccc(O)cc1)C(=O)N[C@@H](Cc1ccc(O)cc1)C(=O)N[C@@H](CC(N)=O)C(=O)N[C@@H](Cc1c[nH]c2ccccc12)C(=O)N[C@@H](CC(C)C)C(=O)N[C@H](C(=O)N[C@@H](CCCNC(=N)N)C(=O)N[C@@H](CCC(N)=O)C(=O)N[C@@H](CCCNC(=N)N)C(=O)N[C@@H](Cc1ccc(O)cc1)C(N)=O)[C@@H](C)O [Compound 176, Y-Aib-E-G-T-F-T-S-D-Y-S-I-Aib-L-E-K-Q-A-Q-Aib-E-F-V-Q-W-L-I-K(1,3)-GGPSEGASLRHYYNWLTRQRY-NH2.C18DA-E-E-E-E-E(1,2)] | 9.54 | 9.17 | 7.52 | 6.70 | – | – |
| H-Y[Aib]EGTFTSDYSI[Aib]LEKQAQ[Aib]AFVQWLIK([εLys-γGlu-γGlu-γGlu-γGlu-γGlu-C18 diacid])GGPEEGASLRHYYNWLTRQRY-NH2 [Compound 143, Y-Aib-E-G-T-F-T-S-D-Y-S-I-Aib-L-E-K-Q-A-Q-Aib-A-F-V-Q-W-L-I-K(1,3)-GGPEEGASLRHYYNWLTRQRY-NH2.C18DA-gGlu-gGlu-gGlu-gGlu-gGlu-eLys(1,2)] | 9.89 | 9.66 | 7.88 | 7.37 | 8.37 | – |
| H-Y[Aib]EGTFTSDYSI[Aib]LEKQAQ[Aib]EFVEWLIK([AEEA-AEEA-γGlu-γGlu-γGlu-C18 diacid])GGPSSGASLRHYYNWLTRQRY-NH2 [Compound 171, Y-Aib-E-G-T-F-T-S-D-Y-S-I-Aib-L-E-K-Q-A-Q-Aib-E-F-V-E-W-L-I-K(1,3)-GGPSSGASLRHYYNWLTRQRY-NH2.C18DA-gGlu-gGlu-gGlu-OEG-OEG(1,2)] | 9.57 | 9.70 | – | 7.52 | 8.38 | 9.08 |
| H-Y[Aib]EGTFTSDYSI[Aib]LEKQAQ[Aib]AFVQWLIK([γGlu-γGlu-γGlu-γGlu-γGlu-C20 diacid])GGPESPASLRHYYNWLTRQRY-NH2 [Compound 11, Y-Aib-E-G-T-F-T-S-D-Y-S-I-Aib-L-E-K-Q-A-Q-Aib-A-F-V-Q-W-L-I-K(1,3)-GGPESPASLRHYYNWLTRQRY-NH2.C20DA-gGlu-gGlu-gGlu-gGlu-gGlu(1,2)] | 9.96 | 9.77 | 7.99 | – | – | – |
| H-Y[Aib]EGTFTSDYSI[Aib]LEKQAQ[Aib]AFVEWLIK([εLys-γGlu-γGlu-γGlu-γGlu-γGlu-γGlu-C20 diacid])GGPSSGASLRHYYNWLTRQR[Tle]-NH2 [Compound 191, Y-Aib-E-G-T-F-T-S-D-Y-S-I-Aib-L-E-K-Q-A-Q-Aib-A-F-V-E-W-L-I-K(1,3)-GGPSSGASLRHYYNWLTRQR-Tle-NH2.C20DA-gGlu-gGlu-gGlu-gGlu-gGlu-gGlu-eLys(1,2)] | 9.77 | 9.64 | < 7.00 | < 6.00 | – | 8.70 |
| H-Y[Aib]EGTFTSDYSI[Aib]LEKQAQ[Aib]AFVQWLIK([εLys-γGlu-γGlu-γGlu-γGlu-γGlu-γGlu-C20 diacid])GGPEEGASLRHYYNWLTRQRY-NH2 [Compound 89, Y-Aib-E-G-T-F-T-S-D-Y-S-I-Aib-L-E-K-Q-A-Q-Aib-A-F-V-Q-W-L-I-K(1,3)-GGPEEGASLRHYYNWLTRQRY-NH2.C20DA-gGlu-gGlu-gGlu-gGlu-gGlu-gGlu-eLys(1,2)] | 9.60 | 9.00 | 7.83 | – | – | – |
| H-Y[Aib]EGTFTSDYSI[Aib]LEKQAQ[Aib]AFVQWLIK([εLys-γGlu-γGlu-γGlu-γGlu-γGlu-C18 diacid])GGPSEPASLRHYYNWLTRQRY-NH2 [Compound 148, Y-Aib-E-G-T-F-T-S-D-Y-S-I-Aib-L-E-K-Q-A-Q-Aib-A-F-V-Q-W-L-I-K(1,3)-GGPSEPASLRHYYNWLTRQRY-NH2.C18DA-gGlu-gGlu-gGlu-gGlu-gGlu-eLys(1,2)] | 10.10 | 10.15 | 7.96 | 7.68 | – | – |
| H-Y[Aib]EGTFTSDYSI[Aib]LEK(Ac)QAQ[Aib]AFVEWLIK([εLys-γGlu-γGlu-γGlu-γGlu-γGlu-γGlu-C20 diacid])GGPSSGASLRHYYNWLTRQRY-NH2 [Compound 192, Y-Aib-E-G-T-F-T-S-D-Y-S-I-Aib-L-E-KAc-Q-A-Q-Aib-A-F-V-E-W-L-I-K(1,3)-GGPSSGASLRHYYNWLTRQRY-NH2.C20DA-gGlu-gGlu-gGlu-gGlu-gGlu-glu-eLys(1,2)] | 9.89 | 9.55 | 7.69 | – | – | – |
| H-Y[Aib]EGTFTSDYSI[Aib]LEKQAQ[Aib]AFVEWLIK([Ahx-γGlu-γGlu-γGlu-γGlu-γGlu-C20 diacid])GGPSEGASLRHYYNWLTRQRY-NH2 [Compound 301, Y-Aib-E-G-T-F-T-S-D-Y-S-I-Aib-L-E-K-Q-A-Q-Aib-A-F-V-E-W-L-I-K(1,3)-GGPSEGASLRHYYNWLTRQRY-NH2.C20DA-gGlu-gGlu-gGlu-gGlu-gGlu-AHX(1,2)] | 9.64 | 9.24 | – | 7.00 | – | 8.49 |
| H-Y[Aib]EGTFTSDYSI[Aib]LEKQAE[Aib]AFVQWLIK([εLys-γGlu-γGlu-γGlu-γGlu-γGlu-γGlu-C18 diacid])GGPSSGASLRHYYNWLTRQRY-NH2 [Compound 51, Y-Aib-E-G-T-F-T-S-D-Y-S-I-Aib-L-E-K-Q-A-E-Aib-A-F-V-Q-W-L-I-K(1,3)-GGPSSGASLRHYYNWLTRQRY-NH2.C18DA-gGlu-gGlu-gGlu-gGlu-gGlu-gGlu-eLys(1,2)] | 9.82 | 9.64 | 7.86 | 7.37 | – | 8.86 |
| H-Y[Aib]EGTFTSDYSI[Aib]LEKQAQ[Aib]AFVEWLIK([εLys-γGlu-γGlu-γGlu-γGlu-γGlu-γGlu-C20 diacid])GGPSSYVSIRHYYNWLTRQRY-NH2 [Compound 9, Y-Aib-E-G-T-F-T-S-D-Y-S-I-Aib-L-E-K-Q-A-Q-Aib-A-F-V-E-W-L-I-K(1,3)-GGPSSYVSIRHYYNWLTRQRY-NH2.C20DA-gGlu-gGlu-gGlu-gGlu-gGlu-gGlu-eLys(1,2)] | 9.34 | 9.68 | 7.82 | 7.72 | – | 8.69 |
| H-Y[Aib]EGTFTSDYSI[Aib]LEKQAQ[Aib]AFVQWLIK([εLys-γGlu-γGlu-γGlu-γGlu-γGlu-C20 diacid])GGPSEGASLRHYYNWLTRQRY-NH2 [Compound 242, Y-Aib-E-G-T-F-T-S-D-Y-S-I-Aib-L-E-K-Q-A-Q-Aib-A-F-V-Q-W-L-I-K(1,3)-GGPSEGASLRHYYNWLTRQRY-NH2.C20DA-gGlu-gGlu-gGlu-gGlu-gGlu-eLys(1,2)] | 9.89 | 9.49 | – | 7.54 | – | 8.76 |

From US20240247080A1, “GLP1/GIP/NPY2 RECEPTOR TRIPLE AGONISTS” (Boehringer Ingelheim International GmbH, priority 2022, published 2024)
